Experimental data from patent publication US20260115185A1, “QUINOLINE DERIVATIVES WHICH ACT AS KAPPA-OPIOID RECEPTOR ANTAGONISTS” (The Scripps Research Institute, priority 2023, published 2026).

Columns and labels:
mu opioid receptor (MOR) = molecular target: T1, mu opioid receptor (MOR) (Homo sapiens, UniProt P35372); assay: OPRMu1 Discover X β-arrestin Assay, antagonist mode (U2OS cells, DAMGO EC80 challenge); format: cell-based
T1 construct: host or cells: U2OS (Discover X OPRMu1-U2OS, PathHunter)
How it was run: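 PathHunter U2OS cells with β-gal fragment-complementation readout for β-arrestin recruitment to OPRMu1. Cells were preincubated with compound (10-point, 1:3 series from nominal 10 micromolar) for 30 min at 37 °C, then challenged with 303 nM DAMGO (EC80) for 3 h. Luminescence gave percent inhibition.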

[1] = molecular target: T2, kappa opioid receptor (KOR) (Homo sapiens, UniProt P41145); assay: OPRKappa 1 Tango B-Arrestin Assay, antagonist mode (Tango OPRK1-bla U2OS cells, U50488 EC80 challenge); format: cell-based; details: for Selectivity (MOR/KOR): Kappa selectivity, MOR IC50 / KOR IC50; for IC50: antagonist mode, Tango OPRK1-bla U2OS cells, 6 nM U50488 challenge
T2 construct: host or cells: U2OS (Tango OPRK1-bla U2OS)
How it was run: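 Tango OPRK1-bla U2OS cells, β-arrestin recruitment read as β-lactamase FRET (CCF4-AM, 460/590 nm emission). Compounds, 10-point 1:3 series from nominal 10 µM in quadruplicate, preincubated 30 min at 37 °C, then challenged with U50488 at 6 nM final (EC80) for 4 h; percent inhibition from median ratio.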

T1 sequence (P35372 whole entry): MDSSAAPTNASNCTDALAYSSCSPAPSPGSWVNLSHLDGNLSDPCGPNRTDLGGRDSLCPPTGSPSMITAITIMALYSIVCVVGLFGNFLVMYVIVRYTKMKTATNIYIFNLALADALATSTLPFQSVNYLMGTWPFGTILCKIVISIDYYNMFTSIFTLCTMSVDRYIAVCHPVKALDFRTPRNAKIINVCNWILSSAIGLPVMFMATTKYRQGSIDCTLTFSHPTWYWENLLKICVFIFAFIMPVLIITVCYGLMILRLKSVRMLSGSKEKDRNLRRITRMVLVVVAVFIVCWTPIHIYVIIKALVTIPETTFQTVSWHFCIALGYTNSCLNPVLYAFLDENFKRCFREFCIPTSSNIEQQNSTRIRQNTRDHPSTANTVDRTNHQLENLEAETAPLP
T2 sequence (P41145 whole entry): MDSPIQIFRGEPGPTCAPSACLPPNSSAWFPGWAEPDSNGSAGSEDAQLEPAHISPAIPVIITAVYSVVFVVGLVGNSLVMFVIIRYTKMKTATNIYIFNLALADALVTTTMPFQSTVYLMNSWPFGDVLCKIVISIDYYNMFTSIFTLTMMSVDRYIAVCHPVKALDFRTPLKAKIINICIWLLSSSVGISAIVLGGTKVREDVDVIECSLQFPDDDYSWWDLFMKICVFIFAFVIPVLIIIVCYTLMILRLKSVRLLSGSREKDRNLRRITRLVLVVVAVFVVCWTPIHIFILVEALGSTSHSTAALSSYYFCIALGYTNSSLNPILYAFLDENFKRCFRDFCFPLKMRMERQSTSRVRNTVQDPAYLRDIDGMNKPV

CCc1cc(F)c2nc(N3CCN(C(=O)[C@@H](C)N(CC)CC)C[C@H]3C)c(-c3nc(C)no3)c(C)c2c1 [Compound 155]
IC50 (mu opioid receptor (MOR)): > 1000 nM | Selectivity (MOR/KOR) [1]: +++ (between 100- to 1000-fold selective) | IC50 [1]: 1 to 10 nM

CCc1cc(F)c2nc(N3CCN(C(=O)[C@H](C)N(CC)CC)C[C@H]3C)c(-c3ccn(C)n3)c(C)c2c1 [Compound 174]
IC50 (mu opioid receptor (MOR)): > 1000 nM | Selectivity (MOR/KOR) [1]: +++ (between 100- to 1000-fold selective) | IC50 [1]: 10 to 100 nM

CCc1cc(F)c2nc(N3CC[C@@H](N[C@@H]4CCCOC4)[C@@H](C)C3)c(-c3ccn(C)n3)c(C)c2c1 [Compound 113]
IC50 (mu opioid receptor (MOR)): > 1000 nM | Selectivity (MOR/KOR) [1]: ++++ (more than 1000-fold selectivity over MOR) | IC50 [1]: < 1 nM

CCc1cc(C#N)c2nc(N3CCC(N4CCOC[C@H]4C)CC3)c(-c3ccn(C)n3)c(C)c2c1 [Compound 82]
IC50 (mu opioid receptor (MOR)): > 1000 nM | Selectivity (MOR/KOR) [1]: ++ (between 10- and 100-fold selectivity) | IC50 [1]: 10 to 100 nM

CCc1cc(F)c2nc(N3CCN(/C(=N\C#N)NC4CCOCC4)C[C@H]3C)c(-c3nc(C)no3)c(C)c2c1 [Compound 56]
IC50 (mu opioid receptor (MOR)): 100 to 1000 nM | Selectivity (MOR/KOR) [1]: ++ (between 10- and 100-fold selectivity) | IC50 [1]: 10 to 100 nM

CCc1cc(F)c2nc(N3CCN(C(=O)[C@H](Cc4ccccc4)N(C)C)C[C@H]3C)c(-c3nc(C)no3)c(C)c2c1 [Compound 52]
IC50 (mu opioid receptor (MOR)): > 1000 nM | Selectivity (MOR/KOR) [1]: ++ (between 10- and 100-fold selectivity) | IC50 [1]: ≥ 100 nM

CCc1cc(F)c2nc(N3CCN(C(=O)CN(CC)CC)C[C@H]3C)c(-c3ccn(C)n3)c(C)c2c1 [Compound 176]
IC50 (mu opioid receptor (MOR)): > 1000 nM | Selectivity (MOR/KOR) [1]: +++ (between 100- to 1000-fold selective) | IC50 [1]: 1 to 10 nM

CCc1cc(F)c2nc(N3CCN(C(=O)CCN4CCCC4)C[C@H]3C)c(-c3nc(C)no3)c(C)c2c1 [Compound 190]
IC50 (mu opioid receptor (MOR)): 100 to 1000 nM | Selectivity (MOR/KOR) [1]: ++ (between 10- and 100-fold selectivity) | IC50 [1]: 1 to 10 nM

CCc1cc(F)c2nc(N3CC[C@H](NC4CCOCC4)[C@H](F)C3)c(-c3cc(C(F)(F)F)n(C)n3)c(C)c2c1 (stereo in doubt) [Compound 83]
IC50 (mu opioid receptor (MOR)): > 1000 nM | Selectivity (MOR/KOR) [1]: +++ (between 100- to 1000-fold selective) | IC50 [1]: ≥ 100 nM

CCc1cc(F)c2nc(N3CCN(CC4CCOCC4)C[C@H]3CC)c(-c3nc(C)no3)c(C)c2c1 [Compound 34, (R)-5-(6-ethyl-2-(2-ethyl-4-((tetrahydro-2H-pyran-4-yl)methyl)piperazin-1-yl)-8-fluoro-4-methylquinolin-3-yl)-3-methyl-1,2,4-oxadiazole]
IC50 (mu opioid receptor (MOR)): 100 to 1000 nM | Selectivity (MOR/KOR) [1]: + (less than 10-fold selectivity) | IC50 [1]: 10 to 100 nM

CCc1cc(F)c2nc(N3CC[C@@H](N[C@@H]4CCCOC4)C[C@@H]3C)c(-c3cc(C)no3)c(C)c2c1 [Compound 143]
IC50 (mu opioid receptor (MOR)): > 1000 nM | Selectivity (MOR/KOR) [1]: ++++ (more than 1000-fold selectivity over MOR) | IC50 [1]: 10 to 100 nM

CCc1cc(-c2ccnn2C)c2nc(N3CCC(NCC4CC(F)(F)C4)CC3)c(-c3ccn(C)n3)c(C)c2c1 [Compound 91]
IC50 (mu opioid receptor (MOR)): 10 to 100 nM | Selectivity (MOR/KOR) [1]: ++ (between 10- and 100-fold selectivity) | IC50 [1]: 1 to 10 nM

CCc1cc(F)c2nc(N3CCN(C(=O)[C@H](CO)N(C)C)C[C@H]3C)c(-c3ccn(C)n3)c(C)c2c1 [Compound 178]
IC50 (mu opioid receptor (MOR)): > 1000 nM | Selectivity (MOR/KOR) [1]: +++ (between 100- to 1000-fold selective) | IC50 [1]: 10 to 100 nM

CCc1cc(F)c2nc(N3CCC(N[C@@H]4CCCC(F)(F)C4)CC3)c(-c3ccn(C)n3)c(C)c2c1 [Compound 74]
IC50 (mu opioid receptor (MOR)): 100 to 1000 nM | Selectivity (MOR/KOR) [1]: ++ (between 10- and 100-fold selectivity) | IC50 [1]: 1 to 10 nM

CCc1cc(F)c2nc(N3CCN(CC(C)C)C[C@H]3C)c(-c3nc(C)no3)c(C)c2c1 [Compound 25]
IC50 (mu opioid receptor (MOR)): > 1000 nM | Selectivity (MOR/KOR) [1]: +++ (between 100- to 1000-fold selective) | IC50 [1]: < 1 nM

CCc1cc(F)c2nc(N3CCN(CC4(F)CCOCC4)C[C@H]3C)c(-c3nc(C)no3)c(C)c2c1 [Compound 207, (R)-5-(6-ethyl-8-fluoro-2-(4-((4-fluorotetrahydro-2H-pyran-4-yl)methyl)-2-methylpiperazin-1-yl)-4-methylquinolin-3-yl)-3-methyl-1,2,4-oxadiazole]
IC50 (mu opioid receptor (MOR)): > 1000 nM | Selectivity (MOR/KOR) [1]: ++++ (more than 1000-fold selectivity over MOR) | IC50 [1]: 1 to 10 nM

CCc1cc(F)c2nc(N3CCN(CC4CCOCC4)C4CC43)c(-c3nc(C)no3)c(C)c2c1 (stereo not shown) [Compound 60]
IC50 (mu opioid receptor (MOR)): > 1000 nM | IC50 [1]: ≥ 100 nM

CCc1cc(F)c2nc(N3CCN(CC4CCOCC4)C[C@H]3C)c(-c3nc(C)no3)c(C)c2c1 [Compound 49, (R)-5-(6-ethyl-8-fluoro-4-methyl-2-(2-methyl-4-((tetrahydro-2H-pyran-4-yl)methyl)piperazin-1-yl)quinolin-3-yl)-3-methyl-1,2,4-oxadiazole]
IC50 (mu opioid receptor (MOR)): > 1000 nM | Selectivity (MOR/KOR) [1]: +++ (between 100- to 1000-fold selective) | IC50 [1]: 10 to 100 nM

CCc1cc(F)c2nc(N3CC[C@@H](N[C@@H]4CCOC4)C[C@H]3C)c(-c3cc(C)no3)c(C)c2c1 [Compound 137]
IC50 (mu opioid receptor (MOR)): 100 to 1000 nM | Selectivity (MOR/KOR) [1]: ++++ (more than 1000-fold selectivity over MOR) | IC50 [1]: < 1 nM

CCc1cc(-c2ccnn2C)c2nc(N3CCC(N4CCOC[C@@H]4C)CC3)c(-c3ccn(C)n3)c(C)c2c1 [Compound 92]
IC50 (mu opioid receptor (MOR)): > 1000 nM | IC50 [1]: > 1000 nM

CCc1cc(F)c2nc(N3CCN(C(=O)[C@@H](C)N4CC[C@@H](O)C4)C[C@H]3C)c(-c3nc(C)no3)c(C)c2c1 [Compound 146]
IC50 (mu opioid receptor (MOR)): > 1000 nM | Selectivity (MOR/KOR) [1]: +++ (between 100- to 1000-fold selective) | IC50 [1]: 10 to 100 nM

CCc1cc(F)c2nc(N3CCN(C(=O)[C@@H]4CCCN4C)C[C@H]3C)c(-c3nc(C)no3)c(C)c2c1 [Compound 46]
IC50 (mu opioid receptor (MOR)): > 1000 nM | Selectivity (MOR/KOR) [1]: +++ (between 100- to 1000-fold selective) | IC50 [1]: 10 to 100 nM

CCc1cc(F)c2nc(N3CCC(N[C@H]4CCOC[C@@H]4O)CC3)c(-c3cc(C)n(C)n3)c(C)c2c1 [Compound 16, (3R,4S)-4-((1-(3-(1,5-dimethyl-1H-pyrazol-3-yl)-6-ethyl-8-fluoro-4-methylquinolin-2-yl)piperidin-4-yl)amino)tetrahydro-2H-pyran-3-ol]
IC50 (mu opioid receptor (MOR)): 100 to 1000 nM | Selectivity (MOR/KOR) [1]: ++ (between 10- and 100-fold selectivity) | IC50 [1]: 1 to 10 nM

CCc1cc(-c2ccnn2C)c2nc(N3CC[C@H](NC4CCOCC4)[C@H](F)C3)c(-c3ccn(C)n3)c(C)c2c1 [Compound 1, (3R,4S)-1-(6-ethyl-4-methyl-3-(1-methyl-1H-pyrazol-3-yl)-8-(1-methyl-1H-pyrazol-5-yl)quinolin-2-yl)-3-fluoro-N-(tetrahydro-2H-pyran-4-yl)piperidin-4-amine]
IC50 (mu opioid receptor (MOR)): > 1000 nM | Selectivity (MOR/KOR) [1]: +++ (between 100- to 1000-fold selective) | IC50 [1]: 1 to 10 nM

CCc1cc(F)c2nc(N3CCN(C(=O)[C@@H]4C[C@@H](O)CN4C)C[C@H]3C)c(-c3cc(C)no3)c(C)c2c1 [Compound 167]
IC50 (mu opioid receptor (MOR)): > 1000 nM | Selectivity (MOR/KOR) [1]: +++ (between 100- to 1000-fold selective) | IC50 [1]: 1 to 10 nM

CCc1cc(F)c2nc(N3CC[C@H]4[C@H](CCN4[C@@H]4CCCOC4)C3)c(-c3ccn(C)n3)c(C)c2c1 [Compound 126]
IC50 (mu opioid receptor (MOR)): > 1000 nM | Selectivity (MOR/KOR) [1]: ++ (between 10- and 100-fold selectivity) | IC50 [1]: 10 to 100 nM

CCc1cc(F)c2nc(N3CC[C@H](N[C@@H]4CCOC4)C[C@H]3C)c(-c3ccn(C)n3)c(C)c2c1 [Compound 118]
IC50 (mu opioid receptor (MOR)): 100 to 1000 nM | Selectivity (MOR/KOR) [1]: ++++ (more than 1000-fold selectivity over MOR) | IC50 [1]: < 1 nM

CCc1cc(-c2ccnn2C)c2nc(N3CCN(CC4CCOCC4)C[C@H]3C)c(-c3ccn(C)n3)c(C)c2c1 [Compound 62]
IC50 (mu opioid receptor (MOR)): 100 to 1000 nM | Selectivity (MOR/KOR) [1]: +++ (between 100- to 1000-fold selective) | IC50 [1]: 1 to 10 nM

CCc1cc(F)c2nc(N3CCN(C(=O)CN4CC[C@@H](F)C4)C[C@H]3C)c(-c3nc(C)no3)c(C)c2c1 [Compound 149]
IC50 (mu opioid receptor (MOR)): 100 to 1000 nM | Selectivity (MOR/KOR) [1]: +++ (between 100- to 1000-fold selective) | IC50 [1]: 1 to 10 nM

CCc1cc(F)c2nc(N3CC[C@@H]4[C@@H](CCN4C[C@@H]4CCCOC4)C3)c(-c3ccn(C)n3)c(C)c2c1 [Compound 133]
IC50 (mu opioid receptor (MOR)): > 1000 nM | Selectivity (MOR/KOR) [1]: +++ (between 100- to 1000-fold selective) | IC50 [1]: 10 to 100 nM

CCc1cc(C#N)c2nc(N3CCC(N4CCOC[C@@H]4C)CC3)c(-c3ccn(C)n3)c(C)c2c1 [Compound 81]
IC50 (mu opioid receptor (MOR)): > 1000 nM | Selectivity (MOR/KOR) [1]: ++ (between 10- and 100-fold selectivity) | IC50 [1]: 10 to 100 nM

CCc1cc(F)c2nc(N3CCC(N[C@H]4CCOC4)CC3)c(-c3cc(C(F)(F)F)n(C)n3)c(C)c2c1 [Compound 84]
IC50 (mu opioid receptor (MOR)): > 1000 nM | Selectivity (MOR/KOR) [1]: +++ (between 100- to 1000-fold selective) | IC50 [1]: 10 to 100 nM

CCc1cc(-c2cc[nH]n2)c2nc(N3CCNC[C@H]3C)c(-c3ccn(C)n3)c(C)c2c1 [Compound 12, (R)-6-ethyl-4-methyl-3-(1-methyl-1H-pyrazol-3-yl)-2-(2-methylpiperazin-1-yl)-8-(1H-pyrazol-3-yl)quinoline]
IC50 (mu opioid receptor (MOR)): > 1000 nM | Selectivity (MOR/KOR) [1]: + (less than 10-fold selectivity) | IC50 [1]: ≥ 100 nM

CCc1cc(F)c2nc(N3CCN(C(=O)[C@@H]4CCCCN4C)C[C@H]3C)c(-c3nc(C)no3)c(C)c2c1 [Compound 188]
IC50 (mu opioid receptor (MOR)): > 1000 nM | Selectivity (MOR/KOR) [1]: +++ (between 100- to 1000-fold selective) | IC50 [1]: 10 to 100 nM

CCc1cc(C#N)c2nc(N3CCC(NCC4(F)CCOCC4)CC3)c(-c3ccn(C)n3)c(C)c2c1 [Compound 80]
IC50 (mu opioid receptor (MOR)): 100 to 1000 nM | Selectivity (MOR/KOR) [1]: ++ (between 10- and 100-fold selectivity) | IC50 [1]: 1 to 10 nM
